Test results as given in paper PMC6556873, “Rapid Covalent-Probe Discovery by Electrophile-Fragment Screening” (Journal of the American Chemical Society, 2019).
Where two headings read alike, the source gives them in different places.

Key:
[1] = biological target: T1, BSA (Bos taurus, UniProt P02769); design: Intact protein LC/MS covalent labelling, fragments in pools of five, 200 uM each, 4 °C; conditions: 24 h, 4 °C, pool of five; 200 µM; covalent
T1 construct: gene ALB

[2] = biological target: T2, NUDT7 (Homo sapiens, UniProt P0C024); design: Intact protein LC/MS covalent labelling, fragments in pools of five, 200 uM each, 4 °C; conditions: 24 h, 4 °C, pool of five; 200 µM; covalent
T2 construct: residues 14-235, E. coli, pNIC28-Bsa4, N-terminal His6 tag removed by TEV, construct 26672 Da

[3] = biological target: T3, OTUB2 (OTUB2A) (Homo sapiens, UniProt Q96DC9); design: Intact protein LC/MS covalent labelling, fragments in pools of five, 200 uM each, 4 °C; conditions: 24 h, 4 °C, pool of five; 200 µM; covalent
T3 construct: full length residues 1-234, E. coli BL21(DE3)-R3, His tag removed by TEV, construct 27312 Da
T3 sequence (Q96DC9 1-234): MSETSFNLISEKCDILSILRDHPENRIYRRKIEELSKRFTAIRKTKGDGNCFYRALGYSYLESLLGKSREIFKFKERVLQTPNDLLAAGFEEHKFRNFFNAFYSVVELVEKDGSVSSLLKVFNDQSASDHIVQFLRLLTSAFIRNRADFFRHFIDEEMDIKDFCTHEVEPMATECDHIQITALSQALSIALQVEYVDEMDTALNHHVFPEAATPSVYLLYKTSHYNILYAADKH

[4] = biological target: T4, PCAF (Homo sapiens, UniProt Q92831); design: Intact protein LC/MS covalent labelling, fragments in pools of five, 200 uM each, 4 °C; conditions: 24 h, 4 °C, pool of five; 200 µM; covalent
T4 construct: gene KAT2B

[5] = in vitro; design: species or system CCD841, HEK293; conditions: human, hb2 cells, read-out: HB-2 Cells Viability (%)
[6] = in vitro; design: species or system HB2, HEK293; conditions: human, ccd841 cells
[7] = in vitro; design: species or system HB2, CCD841; conditions: human, hek293 cells

T4 sequence (Q92831 whole entry, the tested form may be a part): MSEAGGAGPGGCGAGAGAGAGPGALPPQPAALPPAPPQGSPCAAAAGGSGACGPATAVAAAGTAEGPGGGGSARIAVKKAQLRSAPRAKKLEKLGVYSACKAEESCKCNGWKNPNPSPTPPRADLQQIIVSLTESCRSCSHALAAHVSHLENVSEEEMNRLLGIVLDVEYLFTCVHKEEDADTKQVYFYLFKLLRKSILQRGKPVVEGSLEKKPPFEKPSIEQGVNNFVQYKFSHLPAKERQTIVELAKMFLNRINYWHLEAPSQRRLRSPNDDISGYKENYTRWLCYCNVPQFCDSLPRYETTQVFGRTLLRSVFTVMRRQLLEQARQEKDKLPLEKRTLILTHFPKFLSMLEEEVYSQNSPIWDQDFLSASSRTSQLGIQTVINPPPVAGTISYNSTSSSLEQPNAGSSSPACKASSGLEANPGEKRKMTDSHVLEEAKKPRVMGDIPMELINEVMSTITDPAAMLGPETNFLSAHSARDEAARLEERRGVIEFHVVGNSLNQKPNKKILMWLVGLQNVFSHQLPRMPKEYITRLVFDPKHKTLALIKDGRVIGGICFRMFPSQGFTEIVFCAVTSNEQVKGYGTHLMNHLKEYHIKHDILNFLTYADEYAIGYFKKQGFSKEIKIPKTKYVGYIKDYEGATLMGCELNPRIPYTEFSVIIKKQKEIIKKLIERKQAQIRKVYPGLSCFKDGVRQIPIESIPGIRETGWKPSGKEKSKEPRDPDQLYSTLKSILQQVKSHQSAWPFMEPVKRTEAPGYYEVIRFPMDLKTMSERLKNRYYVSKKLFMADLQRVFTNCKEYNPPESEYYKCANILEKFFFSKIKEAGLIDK
T1 sequence (P02769 whole entry, the tested form may be a part): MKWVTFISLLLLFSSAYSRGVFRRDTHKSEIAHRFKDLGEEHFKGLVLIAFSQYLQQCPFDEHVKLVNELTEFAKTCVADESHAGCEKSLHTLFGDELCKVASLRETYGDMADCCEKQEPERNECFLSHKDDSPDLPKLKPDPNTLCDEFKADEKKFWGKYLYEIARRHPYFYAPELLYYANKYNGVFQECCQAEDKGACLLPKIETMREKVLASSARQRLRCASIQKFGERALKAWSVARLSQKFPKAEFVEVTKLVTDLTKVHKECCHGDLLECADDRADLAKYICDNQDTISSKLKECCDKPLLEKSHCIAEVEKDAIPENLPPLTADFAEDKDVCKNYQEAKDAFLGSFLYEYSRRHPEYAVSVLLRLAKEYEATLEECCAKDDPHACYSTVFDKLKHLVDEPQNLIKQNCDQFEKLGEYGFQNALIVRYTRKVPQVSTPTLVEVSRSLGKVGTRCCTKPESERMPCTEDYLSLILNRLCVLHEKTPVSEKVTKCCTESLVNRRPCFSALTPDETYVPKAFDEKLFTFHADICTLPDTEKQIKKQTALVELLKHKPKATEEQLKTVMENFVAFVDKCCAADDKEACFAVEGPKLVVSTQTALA
T2 sequence (P0C024 14-235): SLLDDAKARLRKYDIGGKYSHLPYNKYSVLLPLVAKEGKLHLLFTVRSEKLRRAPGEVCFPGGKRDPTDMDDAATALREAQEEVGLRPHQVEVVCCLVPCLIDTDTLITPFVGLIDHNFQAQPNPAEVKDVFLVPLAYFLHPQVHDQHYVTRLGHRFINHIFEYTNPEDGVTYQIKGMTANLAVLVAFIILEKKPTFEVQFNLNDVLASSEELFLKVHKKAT

SMILES	BSA [1]	NUDT7 [2]	OTUB2 [3]	PCAF [4]	viability at 48 h, 10 µM [5] [%]	viability at 48 h, 10 µM [6] [%]	viability at 48 h, 10 µM [7] [%]
Cl.O=C(CCl)N1CCN(Cc2ccsc2)CC1 [PCM-0102739]	0	0.07	0	0	55.2	85.9	42.7
C=CC(=O)Nc1ccc([N+](=O)[O-])cc1 [PCM-0102740]	0	0.05	0	0	77.4	71.6	87.6
C=CC(=O)Nc1ccccc1[N+](=O)[O-] [PCM-0102742]	0	0.41	0	0	41.2	66.4	65.8
O=C(CCl)N(C1=CCCCC1)C1CC1 [PCM-0102745]	0	0	0	0	96.2	88.3	98.7
CN(CC1COc2ccccc2O1)C(=O)CCl (stereo not drawn) [PCM-0102756]	0	0.16	0.06	0	13.3	52.5	21.7
Cc1ccc(S(=O)(=O)N2CCN(C(=O)CCl)CC2)cc1 [PCM-0102759]	0	0.12	0	0	7.5	49.9	8.6
O=C(CCl)N(C1CCCCC1)C1CCS(=O)(=O)C1 (stereo not drawn) [PCM-0102760]	0	0.08	0	0	49.7	31.1	17.4
O=C(O)C1Cc2ccccc2CN1C(=O)CCl (stereo not drawn) [PCM-0102761]	0	0.21	0	0	98.1	91.2	95.9
C=CC(=O)N1CCC(CS(C)(=O)=O)C1 (stereo not drawn) [PCM-0102765]	0	0	0	0	98.4	101	85.1
C=CC(=O)NCC1CCCCC1 [PCM-0102766]	0	0.05	0	0	97.5	114	79
C=CC(=O)NCC1C2Cc3ccccc3C12 (stereo not drawn) [PCM-0102769]	0	0	0.21	0	94.3	97.5	79.1
C=CC(=O)N1CCC(C(=O)N(C)c2ccccc2)C1 (stereo not drawn) [PCM-0102771]	0	0	0	0	100	106	72.2
CC(C)(C)OC(=O)N1CCN(C(=O)CCl)CC1 [PCM-0102786]	0	0	0	0	85.9	84	68.2
CC1CC(C)CN(C(=O)CCl)C1 (stereo not drawn) [PCM-0102789]	0	0	0.08	0	102	83.1	61.8

The next lines start with results.

BSA [1]	NUDT7 [2]	OTUB2 [3]	PCAF [4]	SMILES	viability at 48 h, 10 µM [5] [%]	viability at 48 h, 10 µM [6] [%]	viability at 48 h, 10 µM [7] [%]
0	0	0.41	0	O=C(CCl)Nc1ccc2c(c1)OC(F)(F)O2 [PCM-0102738]	30	72.2	14.2
0	0	0.1	0	O=C(CCl)Nc1cc(C(F)(F)F)ccc1N1CCOCC1 [PCM-0102741]	102	111	118
0	0	0	0	CC(C)N1CCC(NC(=O)CCl)CC1.Cl [PCM-0102748]	90.9	90.3	97
0	0	0.24	0	CC1CN(c2ccc(NC(=O)CCl)cc2)CC(C)O1 (stereo not drawn) [PCM-0102750]	65.9	64.7	52.7
0	0	0	0	NC(=O)c1ccccc1NC(=O)CCl [PCM-0102758]	69.6	66.1	53.5
0	0	0.13	0	O=C(CCl)Nc1cc(Cl)ccc1F [PCM-0102762]	11.4	49.4	2.4
0	0.07	0.29	0	COC(=O)c1ccc(Cl)c(NC(=O)CCl)c1 [PCM-0102764]	16.7	39.9	5.7
0	0.13	0.28	0	CSc1ccc(NC(=O)CCl)cc1 [PCM-0102772]	15.2	51.2	3
0	0.13	0	0	Cc1ccc(-c2nnc(C)[nH]2)c(NC(=O)CCl)c1 [PCM-0102775]	61.1	45	53
0	0.11	0	0	Cc1noc(C)c1CNC(=O)CCl [PCM-0102780]	102	94.9	101
0	0	0	0	CN(C(=O)CCl)C(C)(C)C#N [PCM-0102782]	95.9	92.5	77.7
0	0.19	0	0	CC(c1ccc(F)cc1)N(C)C(=O)CCl (stereo not drawn) [PCM-0102783]	47.3	47.8	30.3
0	0.2	0	0	Cc1ccsc1CN(C)C(=O)CCl [PCM-0102785]	22.2	56.7	36
0	0	0	0	CN(Cc1ccccc1F)C(=O)CCl [PCM-0102787]	57.7	72.2	57.9
0	0.36	0.09	0	Cc1nc(NC(=O)CCl)sc1-c1ccccc1 [PCM-0102788]	35.7	23.8	26.7
0	0	0	0	O=C(CCl)NCc1cc(F)cc(F)c1 [PCM-0102790]	98.6	71.3	74.1
0	0	0.19	0	CC(c1nc2ccccc2s1)N(C)C(=O)CCl (stereo not drawn) [PCM-0102793]	4.3	26.1	1
0	0	0.34	0	O=C(CCl)NCC1CCCc2ccccc21 (stereo not drawn) [PCM-0102794]	67.3	66.7	53.5
0	0	0	0	CC1CN(C(=O)CCl)CC(C)O1 (stereo not drawn) [PCM-0102796]	92.9	76.2	66.2
